The values below come from US8445501B2, “Substituted 7-carboxamido-pyrrolo[3,2-d]pyrimidines” (Takeda GmbH, priority 2008, dated 2013).

The experiment has as its target T1, human PDE5 (Homo sapiens, UniProt O76074).
T1 construct: from tissue; host or cells: platelets from fresh blood of human donors (lysate, 10,000 g supernatant)
The experiment in a line: Inhibition of the type 5 phosphodiesterase (PDE5) activity, modified SPA test with platelet lysate. It counts as biochemical. To be noted: PDE5 from human platelet lysate, 0.5 μM cGMP. Put shortly:
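SPA-based cGMP hydrolysis, [3H]cGMP tracer in 0.5 μM cGMP, by sonicated human platelet lysate; motapizone (1 μM) and a PDE2 inhibitor (10 nM) block other PDEs. Reaction 15 min at 37 °C after 5 min preincubation, quenched with beads containing IBMX. IC50 from concentration-effect curves.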
Consider `COCC(=O)N[C@H]1CC[C@H](NC(=O)c2c[nH]c3c(-c4ccc(OC)cc4OCC4CC4)ncnc23)CC1` [Example 53, trans-4-(2-Cyclopropylmethoxy-4-methoxy-phenyl)-5H-pyrrolo[3,2-d]pyrimidine-7-carboxylic acid [4-(2-methoxy-acetylamino)-cyclohexyl]-amide], for which inhibition was half-maximal at 0.372 nM (IC50). On to `CCOC(=O)N[C@H]1CC[C@H](NC(=O)c2c[nH]c3c(-c4ccc(OC)cc4OCC4CC4)ncnc23)CC1` [Example 54, trans-(4-{[4-(2-Cyclopropylmethoxy-4-methoxy-phenyl)-5H-pyrrolo[3,2-d]pyrimidine-7-carbonyl]-amino}-cyclohexyl)-carbamic acid ethyl ester], for which the IC50 (as a rule, the point on the concentration scale where inhibition reaches its midpoint) is 0.417 nM. For `COc1ccc(-c2ncnc3c(C(=O)N[C@H]4CC[C@@H](NC(C)=O)CC4)c[nH]c23)c(OCC2CC2)c1` [Example 55, cis-4-(2-Cyclopropylmethoxy-4-methoxy-phenyl)-5H-pyrrolo[3,2-d]pyrimidine-7-carboxylic acid (4-acetylamino-cyclohexyl)-amide] the value was 0.372 nM; for `COc1ccc(-c2ncnc3c(C(=O)N[C@H]4CC[C@@H](NC(=O)C5CC5)CC4)c[nH]c23)c(OCC2CC2)c1` [Example 56, cis-4-(2-Cyclopropylmethoxy-4-methoxy-phenyl)-5H-pyrrolo[3,2-d]pyrimidine-7-carboxylic acid [4-(cyclopropanecarbonyl-amino)cyclohexyl]-amide], 0.282 nM; for `COCC(=O)N[C@H]1CC[C@@H](NC(=O)c2c[nH]c3c(-c4ccc(OC)cc4OCC4CC4)ncnc23)CC1` [Example 57, cis-4-(2-Cyclopropylmethoxy-4-methoxy-phenyl)-5H-pyrrolo[3,2-d]pyrimidine-7-carboxylic acid [4-(2-methoxy-acetylamino)-cyclohexyl]-amide], 0.468 nM. In turn, `CCOC(=O)N[C@H]1CC[C@@H](NC(=O)c2c[nH]c3c(-c4ccc(OC)cc4OCC4CC4)ncnc23)CC1` [Example 58, cis-(4-{[4-(2-Cyclopropylmethoxy-4-methoxy-phenyl)-5H-pyrrolo[3,2-d]pyrimidine-7-carbonyl]-amino}-cyclohexyl)-carbamic acid ethyl ester] gave an IC50 of 0.339 nM. Turning to `COc1ccc(-c2ncnc3c(C(=O)NC4CCN(C(C)=O)CC4)c[nH]c23)c(OCC2CC2)c1` [Example 59, 4-(2-Cyclopropylmethoxy-4-methoxy-phenyl)-5H-pyrrolo[3,2-d]pyrimidine-7-carboxylic acid (1-acetyl-piperidin-4-yl)-amide], half-maximal inhibition (IC50) was put at 0.741 nM. For `COc1ccc(-c2ncnc3c(C(=O)NC4CCN(C(=O)C5CC5)CC4)c[nH]c23)c(OCC2CC2)c1` [Example 60, 4-(2-Cyclopropylmethoxy-4-methoxy-phenyl)-5H-pyrrolo[3,2-d]pyrimidine-7-carboxylic acid [1-(1-cyclopropyl-methanoyl)-piperidin-4-yl]-amide] the value was 0.263 nM; for `COCC(=O)N1CCC(NC(=O)c2c[nH]c3c(-c4ccc(OC)cc4OCC4CC4)ncnc23)CC1` [Example 61, 4-(2-Cyclopropylmethoxy-4-methoxy-phenyl)-5H-pyrrolo[3,2-d]pyrimidine-7-carboxylic acid [1-(2-methoxy-ethanoyl)-piperidin-4-yl]amide], 0.525 nM; for `CCOC(=O)N1CCC(NC(=O)c2c[nH]c3c(-c4ccc(OC)cc4OCC4CC4)ncnc23)CC1` [Example 62, 4-({1-[4-(2-Cyclopropylmethoxy-4-methoxy-phenyl)-5H-pyrrolo[3,2-d]pyrimidin-7-yl]-methanoyl}-amino)-piperidine-1-carboxylic acid ethyl ester], 0.309 nM. `COc1ccc(OCC2CC2)c(-c2ncnc3c(C(=O)N[C@H]4CC[C@H](NC(C)=O)CC4)c[nH]c23)c1` [Example 63, trans-4-(2-Cyclopropylmethoxy-5-methoxy-phenyl)-5H-pyrrolo[3,2-d]pyrimidine-7-carboxylic acid (4-acetylamino-cyclohexyl)-amide]: the IC50 was 0.912 nM.

`COc1ccc(OCC2CC2)c(-c2ncnc3c(C(=O)N[C@H]4CC[C@H](NC(=O)C5CC5)CC4)c[nH]c23)c1` [Example 64, trans-4-(2-Cyclopropylmethoxy-5-methoxy-phenyl)-5H-pyrrolo[3,2-d]pyrimidine-7-carboxylic acid [4-(cyclopropanecarbonyl-amino)cyclohexyl]-amide] had an IC50 of 0.603 nM. Consider `COCC(=O)N[C@H]1CC[C@H](NC(=O)c2c[nH]c3c(-c4cc(OC)ccc4OCC4CC4)ncnc23)CC1` [Example 65, trans-4-(2-Cyclopropylmethoxy-5-methoxy-phenyl)-5H-pyrrolo[3,2-d]pyrimidine-7-carboxylic acid [4-(2-methoxy-acetylamino)-cyclohexyl]-amide], for which the IC50 was 1.15 nM.

In the case of `CCOC(=O)N[C@H]1CC[C@H](NC(=O)c2c[nH]c3c(-c4cc(OC)ccc4OCC4CC4)ncnc23)CC1` [Example 66, trans-(4-{[4-(2-Cyclopropylmethoxy-5-methoxy-phenyl)-5H-pyrrolo[3,2-d]pyrimidine-7-carbonyl]-amino}-cyclohexyl)-carbamic acid ethyl ester], the IC50 is 0.631 nM.

Consider `COc1ccc(OCC2CC2)c(-c2ncnc3c(C(=O)N[C@H]4CC[C@@H](NC(C)=O)CC4)c[nH]c23)c1` [Example 67, cis-4-(2-Cyclopropylmethoxy-5-methoxy-phenyl)-5H-pyrrolo[3,2-d]pyrimidine-7-carboxylic acid (4-acetylamino-cyclohexyl)-amide], for which the IC50 is 1.38 nM. Under `COc1ccc(OCC2CC2)c(-c2ncnc3c(C(=O)N[C@H]4CC[C@@H](NC(=O)C5CC5)CC4)c[nH]c23)c1` [Example 68, cis-4-(2-Cyclopropylmethoxy-5-methoxy-phenyl)-5H-pyrrolo[3,2-d]pyrimidine-7-carboxylic acid [4-(cyclopropanecarbonyl-amino)cyclohexyl]-amide] stands 0.912 nM; under `COCC(=O)N[C@H]1CC[C@@H](NC(=O)c2c[nH]c3c(-c4cc(OC)ccc4OCC4CC4)ncnc23)CC1` [Example 69, cis-4-(2-Cyclopropylmethoxy-5-methoxy-phenyl)-5H-pyrrolo[3,2-d]pyrimidine-7-carboxylic acid [4-(2-methoxy-acetylamino)-cyclohexyl]-amide], 1.78 nM.

In turn, `CCOC(=O)N[C@H]1CC[C@@H](NC(=O)c2c[nH]c3c(-c4cc(OC)ccc4OCC4CC4)ncnc23)CC1` [Example 70, cis-(4-{[4-(2-Cyclopropylmethoxy-5-methoxy-phenyl)-5H-pyrrolo[3,2-d]pyrimidine-7-carbonyl]-amino}-cyclohexyl)-carbamic acid ethyl ester] gave an IC50 of 1.07 nM. Under `COc1ccc(OCC2CC2)c(-c2ncnc3c(C(=O)NC4CCN(C(C)=O)CC4)c[nH]c23)c1` [Example 71, 4-(2-Cyclopropylmethoxy-5-methoxy-phenyl)-5H-pyrrolo[3,2-d]pyrimidine-7-carboxylic acid (1-acetyl-piperidin-4-yl)-amide] stands 1.35 nM. Regarding `COc1ccc(OCC2CC2)c(-c2ncnc3c(C(=O)NC4CCN(C(=O)C5CC5)CC4)c[nH]c23)c1` [Example 72, 4-(2-Cyclopropylmethoxy-5-methoxy-phenyl)-5H-pyrrolo[3,2-d]pyrimidine-7-carboxylic acid (1-cyclopropanecarbonyl-piperidin-4-yl)-amide], the IC50 was 0.437 nM. For `COCC(=O)N1CCC(NC(=O)c2c[nH]c3c(-c4cc(OC)ccc4OCC4CC4)ncnc23)CC1` [Example 73, 4-(2-Cyclopropylmethoxy-5-methoxy-phenyl)-5H-pyrrolo[3,2-d]pyrimidine-7-carboxylic acid [1-(2-methoxy-acetyl)piperidin-4-yl]-amide] the value was 1.86 nM. Under `CCOC(=O)N1CCC(NC(=O)c2c[nH]c3c(-c4cc(OC)ccc4OCC4CC4)ncnc23)CC1` [Example 74, 4-{[4-(2-Cyclopropylmethoxy-5-methoxy-phenyl)-5H-pyrrolo[3,2-d]pyrimidine-7-carbonyl]-amino}-piperidine-1-carboxylic acid ethyl ester] stands 0.55 nM; under `CC(=O)N[C@H]1CC[C@@H](NC(=O)c2c[nH]c3c(-c4ccc(F)cc4OCC4CC4)ncnc23)CC1` [Example 75, cis-4-(2-Cyclopropylmethoxy-4-fluoro-phenyl)-5H-pyrrolo[3,2-d]pyrimidine-7-carboxylic acid (4-acetylamino-cyclohexyl)-amide], 1.58 nM. Under `COCC(=O)N[C@H]1CC[C@@H](NC(=O)c2c[nH]c3c(-c4ccc(F)cc4OCC4CC4)ncnc23)CC1` [Example 76, cis-4-(2-Cyclopropylmethoxy-4-fluoro-phenyl)-5H-pyrrolo[3,2-d]pyrimidine-7-carboxylic acid [4-(2-methoxy-acetylamino)-cyclohexyl]-amide] stands 2.4 nM.

With `CCOC(=O)N[C@H]1CC[C@@H](NC(=O)c2c[nH]c3c(-c4ccc(F)cc4OCC4CC4)ncnc23)CC1` [Example 77, cis-(4-{[4-(2-Cyclopropylmethoxy-4-fluoro-phenyl)-5H-pyrrolo[3,2-d]pyrimidine-7-carbonyl]-amino}-cyclohexyl)-carbamic acid ethyl ester], the IC50 is 2.14 nM. Consider `CC(=O)N[C@H]1CC[C@H](NC(=O)c2c[nH]c3c(-c4ccc(F)cc4OCC4CC4)ncnc23)CC1` [Example 78, trans-4-(2-Cyclopropylmethoxy-4-fluoro-phenyl)-5H-pyrrolo[3,2-d]pyrimidine-7-carboxylic acid (4-acetylamino-cyclohexyl)-amide], for which 2.29 nM corresponded to half-maximal inhibition (IC50). For `COCC(=O)N[C@H]1CC[C@H](NC(=O)c2c[nH]c3c(-c4ccc(F)cc4OCC4CC4)ncnc23)CC1` [Example 79, trans-4-(2-Cyclopropylmethoxy-4-fluoro-phenyl)-5H-pyrrolo[3,2-d]pyrimidine-7-carboxylic acid [4-(2-methoxy-acetylamino)-cyclohexyl]-amide] the value was 1.55 nM.
